Data reported in patent US10870647B2, “Imidazopyridine derivative, method for preparing same, and pharmaceutical composition containing same as active ingredient for preventing or treating cancer” (DAEGU-GYEONGBUK MEDICAL INNOVATION FOUNDATION, priority 2016, dated 2020).

Experiments:
Test in all cases: Kinase selectivity, scanMAX Kinase assay panel (DiscoverX), % control at 1 uM
Format in all cases: binding
[1] = target: T1, scanMAX Kinase assay panel (Homo sapiens, UniProt Q00532); conditions: CDKL1; 1 uM; read-out: Percent Control (%)
T1 construct: purchased DiscoverX
Procedure, shortened: (§1)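 Single-point screen at 1 uM compound in DMSO. Lower % control means stronger inhibition, with the cutoff for activity set at <35%.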

[2] = target: T2, scanMAX Kinase assay panel (Homo sapiens, UniProt Q02779); conditions: MLK2; 1 uM; read-out: Percent Control (%)
T2 construct: purchased DiscoverX
Procedure, shortened: as §1

[3] = target: T3, scanMAX Kinase assay panel (Homo sapiens, UniProt P06241); conditions: FYN; 1 uM; read-out: Percent Control (%)
T3 construct: purchased DiscoverX
Procedure, shortened: as §1

[4] = target: T4, scanMAX Kinase assay panel (Homo sapiens, UniProt O94806); conditions: PRKD3; 1 uM; read-out: Percent Control (%)
T4 construct: purchased DiscoverX
T4 sequence (O94806 1-890): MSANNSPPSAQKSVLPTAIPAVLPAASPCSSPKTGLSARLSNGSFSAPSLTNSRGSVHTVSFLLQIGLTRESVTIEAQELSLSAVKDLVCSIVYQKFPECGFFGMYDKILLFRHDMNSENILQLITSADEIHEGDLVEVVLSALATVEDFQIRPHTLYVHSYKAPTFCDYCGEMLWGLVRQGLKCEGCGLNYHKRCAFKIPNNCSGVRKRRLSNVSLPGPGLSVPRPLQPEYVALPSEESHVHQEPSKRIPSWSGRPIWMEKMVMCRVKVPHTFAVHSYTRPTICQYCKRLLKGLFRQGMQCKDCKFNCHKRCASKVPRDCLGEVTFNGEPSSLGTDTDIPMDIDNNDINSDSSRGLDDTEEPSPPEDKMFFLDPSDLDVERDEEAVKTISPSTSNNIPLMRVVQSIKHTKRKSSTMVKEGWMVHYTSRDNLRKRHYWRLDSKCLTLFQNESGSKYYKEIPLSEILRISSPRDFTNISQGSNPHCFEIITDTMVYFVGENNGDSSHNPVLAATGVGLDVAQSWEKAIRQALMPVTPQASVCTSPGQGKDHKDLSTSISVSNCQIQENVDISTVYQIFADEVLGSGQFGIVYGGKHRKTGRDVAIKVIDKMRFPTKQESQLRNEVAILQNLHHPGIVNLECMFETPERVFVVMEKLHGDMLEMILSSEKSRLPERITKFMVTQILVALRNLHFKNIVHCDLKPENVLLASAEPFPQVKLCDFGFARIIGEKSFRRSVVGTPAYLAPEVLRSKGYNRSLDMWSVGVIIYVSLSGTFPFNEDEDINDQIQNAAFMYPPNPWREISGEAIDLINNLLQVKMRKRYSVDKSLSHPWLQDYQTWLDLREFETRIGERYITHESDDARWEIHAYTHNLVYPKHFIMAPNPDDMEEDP
Procedure, shortened: as §1

[5] = target: T5, scanMAX Kinase assay panel (Homo sapiens, UniProt O14733); conditions: MKK7; 1 uM; read-out: Percent Control (%)
T5 construct: purchased DiscoverX
T5 sequence (O14733 1-419): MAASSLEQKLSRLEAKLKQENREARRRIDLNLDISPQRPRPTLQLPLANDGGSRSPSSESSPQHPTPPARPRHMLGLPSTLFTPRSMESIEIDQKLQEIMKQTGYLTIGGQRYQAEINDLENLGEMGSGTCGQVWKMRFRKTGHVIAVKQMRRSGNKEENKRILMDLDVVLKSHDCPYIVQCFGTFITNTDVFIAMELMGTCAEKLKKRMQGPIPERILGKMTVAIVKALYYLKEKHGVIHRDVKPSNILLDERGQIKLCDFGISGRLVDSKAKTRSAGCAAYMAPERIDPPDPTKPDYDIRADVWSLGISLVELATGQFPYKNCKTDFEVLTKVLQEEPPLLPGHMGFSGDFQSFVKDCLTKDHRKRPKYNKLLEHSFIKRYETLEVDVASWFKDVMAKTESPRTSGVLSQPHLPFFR
Procedure, shortened: as §1

[6] = target: T6, scanMAX Kinase assay panel (Homo sapiens, UniProt P29317); conditions: EPHA2; 1 uM; read-out: Percent Control (%)
T6 construct: purchased DiscoverX
Procedure, shortened: as §1

[7] = target: T7, scanMAX Kinase assay panel (Homo sapiens, UniProt P0C264); conditions: SgK110; 1 uM; read-out: Percent Control (%)
T7 construct: purchased DiscoverX
T7 sequence (P0C264 1-359): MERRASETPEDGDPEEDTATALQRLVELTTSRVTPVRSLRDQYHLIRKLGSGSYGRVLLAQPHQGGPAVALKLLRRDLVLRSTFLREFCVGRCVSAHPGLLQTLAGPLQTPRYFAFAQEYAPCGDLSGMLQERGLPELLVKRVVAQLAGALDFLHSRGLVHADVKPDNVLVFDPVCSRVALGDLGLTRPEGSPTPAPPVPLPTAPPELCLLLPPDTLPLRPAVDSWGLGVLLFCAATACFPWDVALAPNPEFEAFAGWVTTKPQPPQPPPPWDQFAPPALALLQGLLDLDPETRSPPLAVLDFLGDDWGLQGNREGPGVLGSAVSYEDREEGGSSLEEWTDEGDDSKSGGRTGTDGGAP
Procedure, shortened: as §1

T6 sequence (P29317 24-976): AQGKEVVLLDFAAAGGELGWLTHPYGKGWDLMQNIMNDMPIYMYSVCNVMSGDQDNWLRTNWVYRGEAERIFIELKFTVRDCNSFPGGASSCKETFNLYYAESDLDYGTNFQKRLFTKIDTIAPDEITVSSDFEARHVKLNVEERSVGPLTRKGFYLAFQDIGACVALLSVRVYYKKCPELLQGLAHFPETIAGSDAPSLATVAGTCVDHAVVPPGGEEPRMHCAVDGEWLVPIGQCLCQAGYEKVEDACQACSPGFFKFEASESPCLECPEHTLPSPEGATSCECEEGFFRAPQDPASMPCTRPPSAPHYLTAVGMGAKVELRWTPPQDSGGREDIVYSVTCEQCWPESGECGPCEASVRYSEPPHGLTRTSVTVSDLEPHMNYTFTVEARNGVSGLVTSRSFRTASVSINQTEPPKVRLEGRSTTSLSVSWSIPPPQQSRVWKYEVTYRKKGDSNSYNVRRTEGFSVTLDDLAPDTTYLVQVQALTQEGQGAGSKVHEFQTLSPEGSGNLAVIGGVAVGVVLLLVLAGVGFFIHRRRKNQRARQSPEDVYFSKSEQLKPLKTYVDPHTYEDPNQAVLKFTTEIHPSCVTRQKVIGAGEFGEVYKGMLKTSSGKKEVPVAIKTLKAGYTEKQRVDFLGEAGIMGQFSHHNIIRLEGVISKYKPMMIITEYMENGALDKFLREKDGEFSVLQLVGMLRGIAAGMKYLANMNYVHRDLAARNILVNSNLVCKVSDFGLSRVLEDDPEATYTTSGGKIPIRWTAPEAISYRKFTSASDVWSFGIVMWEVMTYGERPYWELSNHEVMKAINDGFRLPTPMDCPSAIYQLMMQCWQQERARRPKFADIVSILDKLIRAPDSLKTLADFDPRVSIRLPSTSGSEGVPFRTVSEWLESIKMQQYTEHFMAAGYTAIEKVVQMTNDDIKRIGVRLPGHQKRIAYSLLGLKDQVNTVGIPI
T1 sequence (Q00532 whole entry): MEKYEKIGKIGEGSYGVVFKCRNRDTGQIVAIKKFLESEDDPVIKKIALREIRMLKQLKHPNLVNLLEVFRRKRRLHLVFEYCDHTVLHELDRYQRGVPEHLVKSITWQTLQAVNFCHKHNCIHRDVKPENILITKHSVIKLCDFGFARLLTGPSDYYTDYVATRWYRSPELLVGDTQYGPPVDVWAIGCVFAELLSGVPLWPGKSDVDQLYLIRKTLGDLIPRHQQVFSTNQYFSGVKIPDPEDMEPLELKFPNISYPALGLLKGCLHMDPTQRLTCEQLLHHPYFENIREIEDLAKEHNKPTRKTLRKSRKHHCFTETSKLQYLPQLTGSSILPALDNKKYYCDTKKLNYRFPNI
T2 sequence (Q02779 whole entry): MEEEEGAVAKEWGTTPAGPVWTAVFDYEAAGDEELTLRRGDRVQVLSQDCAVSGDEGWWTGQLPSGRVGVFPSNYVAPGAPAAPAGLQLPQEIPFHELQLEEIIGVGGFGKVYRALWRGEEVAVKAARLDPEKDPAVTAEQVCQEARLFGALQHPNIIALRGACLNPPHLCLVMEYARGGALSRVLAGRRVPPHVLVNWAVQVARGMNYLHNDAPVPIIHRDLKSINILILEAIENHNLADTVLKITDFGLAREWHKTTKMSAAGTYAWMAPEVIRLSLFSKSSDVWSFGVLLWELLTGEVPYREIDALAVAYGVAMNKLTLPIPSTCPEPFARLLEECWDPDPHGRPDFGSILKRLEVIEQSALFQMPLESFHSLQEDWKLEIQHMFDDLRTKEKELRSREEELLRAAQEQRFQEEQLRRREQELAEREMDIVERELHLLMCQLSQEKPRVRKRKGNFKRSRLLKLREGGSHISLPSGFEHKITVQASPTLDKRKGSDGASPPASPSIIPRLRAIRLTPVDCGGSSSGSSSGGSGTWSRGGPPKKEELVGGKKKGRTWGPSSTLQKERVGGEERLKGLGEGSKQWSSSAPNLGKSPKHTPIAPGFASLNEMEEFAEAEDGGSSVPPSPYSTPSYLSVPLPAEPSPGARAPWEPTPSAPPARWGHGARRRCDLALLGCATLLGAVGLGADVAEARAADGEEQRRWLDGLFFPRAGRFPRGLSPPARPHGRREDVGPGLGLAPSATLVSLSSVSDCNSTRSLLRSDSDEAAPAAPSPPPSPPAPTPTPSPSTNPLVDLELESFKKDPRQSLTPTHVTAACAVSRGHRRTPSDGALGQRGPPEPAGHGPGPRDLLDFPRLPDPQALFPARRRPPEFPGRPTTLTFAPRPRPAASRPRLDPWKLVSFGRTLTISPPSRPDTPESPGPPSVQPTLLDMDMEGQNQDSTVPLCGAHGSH
T3 sequence (P06241 whole entry): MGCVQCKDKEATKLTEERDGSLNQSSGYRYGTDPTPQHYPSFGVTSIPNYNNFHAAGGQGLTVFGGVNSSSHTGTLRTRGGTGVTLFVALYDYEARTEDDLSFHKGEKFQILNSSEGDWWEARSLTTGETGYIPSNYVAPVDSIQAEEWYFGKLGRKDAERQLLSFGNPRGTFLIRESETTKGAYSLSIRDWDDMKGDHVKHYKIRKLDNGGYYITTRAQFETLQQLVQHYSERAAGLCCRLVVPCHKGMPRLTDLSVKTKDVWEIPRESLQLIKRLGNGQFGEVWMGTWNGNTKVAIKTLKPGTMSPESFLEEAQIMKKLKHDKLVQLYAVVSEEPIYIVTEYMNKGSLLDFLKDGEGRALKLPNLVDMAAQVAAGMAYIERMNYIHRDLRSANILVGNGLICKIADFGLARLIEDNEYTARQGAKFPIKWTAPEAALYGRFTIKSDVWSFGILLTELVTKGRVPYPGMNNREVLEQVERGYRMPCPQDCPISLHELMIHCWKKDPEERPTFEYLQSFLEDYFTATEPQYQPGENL

Q: For `Cc1ccc(C(=O)Nc2ccc(CN3CCN(C)CC3)c(C(F)(F)F)c2)cc1C#Cc1cnc2c(Nc3cnn(C)c3)cccn12` [Example 1, 4-methyl-3-((8-((1-methyl-1H-pyrazol-4-yl)amino)imidazo[1,2-a]pyridin-3-yl)ethynyl)-N-(4-((4-methylpiperazin-1-yl)methyl)-3-(trifluoromethyl)phenyl)benzamide], which remaining binding at 1 µM [1] is on record?
A: 25%

Q: And the remaining binding at 1 µM [2]?
A: 29%

Q: What about the remaining binding at 1 µM [3] of the same compound?
A: 1%

Q: What about the remaining binding at 1 µM [4] of the same compound?
A: 43%

Q: And the remaining binding at 1 µM [5]?
A: 90%

Q: What about the remaining binding at 1 µM [6] of the same compound?
A: 2%

Q: And the remaining binding at 1 µM [7]?
A: 95%

Q: What does the source list for `Cc1cn(-c2cc(NC(=O)c3ccc(C)c(C#Cc4cnc5c(Nc6cnn(C)c6)cccn45)c3)cc(C(F)(F)F)c2)cn1` [Example 12, 4-methyl-N-(3-(4-methyl-1H-imidazol-1-yl)-5-(trifluoromethyl)phenyl)-3-((8-((1-methyl-1H-pyrazol-4-yl)amino)imidazo[1,2-a]pyridin-3-yl)ethynyl)benzamide]?
A: remaining binding at 1 µM [1]: 60%; remaining binding at 1 µM [2]: 48%; remaining binding at 1 µM [3]: 15%; remaining binding at 1 µM [4]: 96%; remaining binding at 1 µM [5]: 100%; remaining binding at 1 µM [6]: 9%; remaining binding at 1 µM [7]: 81%

Q: With `Cc1ccc(NC(=O)C2(C(=O)Nc3ccc(F)cc3)CC2)cc1C#Cc1cnc2c(Nc3cnn(C(C)C)c3)cccn12` [Example 78] as the compound, how does the remaining binding at 1 µM [1] read?
A: 83%

Q: And the remaining binding at 1 µM [2]?
A: 94%

Q: What about the remaining binding at 1 µM [3] of the same compound?
A: 84%

Q: And the remaining binding at 1 µM [4]?
A: 88%

Q: And the remaining binding at 1 µM [5]?
A: 99%

Q: What about the remaining binding at 1 µM [6] of the same compound?
A: 91%

Q: And the remaining binding at 1 µM [7]?
A: 100%
